Where two headings read alike, the source gives them in different places.
What was measured:
[1] = Agricultural dispersant screening: sedimentation of milled pesticide powder; assay type: physicochemical; parameters: key to Sedimentation results at 1 h: Trace of sediment=“Tr”; details: for Rating: overall, versus DF-200 and DF-500 controls
Method: The potential of a composition for use as an agricultural dispersant is evaluated by its performance with five typical pesticide active ingredients: atrazine, chlorothalonil, diuron, imidacloprid and tebuconazole. The performance of each dispersant sample is evaluated in comparison with two standard Stepsperse® dispersants: DF-200 and DF-500 (products of Stepan Company).
A screening sample is prepared as shown below for each active. Wetting agents, clays, and various additives are included or excluded from the screening process as needed. The weight percent of pesticide (“technical material”) in the formulation depends on the desired active level of the final product. The active level chosen is similar to other products on the market. If this is a new active ingredient, then the highest active level is used.
Samples are evaluated in waters of varying hardness, in this case 342 ppm and 1000 ppm. The initial evaluations are performed at ambient temperature. Other temperatures can be evaluated as desired. The 342 ppm water is made by dissolving anhydrous calcium chloride (0.304 g) and magnesium chloride hexahydrate (0.139 g) in deionized water and diluting to 1 L. The 1000 ppm water is made similarly using 0.89 g of calcium chloride and 0.40 g of magnesium chloride hexahydrate.
Technical material (60-92.5 wt. %), anionic wetting agent (0.5-1.0 wt. %), silica (0.5-1.0 wt. %), and clay (balance) are blended in a suitable container. The blend is milled to a particle size of at least a d(90) of <20μ using a hammer and air/jet mills as needed. Test dispersant (0.1 g) is added to test water (50 mL) in a beaker and stirred 1-2 min. Milled powder containing the technical material (1.0 g) is added to the dispersant solution and stirred until all powder is wet (2-5 min.). The mixture is transferred to a 100-mL cylinder using additional test water for rinsing the beaker and is then diluted to volume. The cylinder is stoppered and inverted ten times, then allowed to stand. Visual inspection is performed at t=0.5, 1.0, 2.0, and 24 hours, and the amount of sediment observed (in mL) is recorded. Trace of sediment=“Tr” (see Table 5).

[2] = Interfacial tension (IFT) against light mineral oil, synergy study with cationic surfactant; assay type: physicochemical; details: for IFT at 0.1% actives/mineral oil (blend): 1:1 molar blend of the anionic with Ammonyx Cetac 30, 0.1% actives, light mineral oil; for Calculated IFT (no synergy): expected IFT of the 1:1 molar blend with Ammonyx Cetac 30 by ideal mixing; for Synergy?: measured versus expected IFT of the 1:1 molar blend with Ammonyx Cetac 30; for IFT at 0.1% actives (single component): 0.1 wt. % active against light mineral oil, ambient temperature
Method: (§1) The surfactant blends tested are prepared at a 1:1 molar ratio without any pH adjustment. Dilutions are made using deionized water to the desired actives level. Actives amounts are wt. % unless indicated otherwise. Appearances are reported at ambient temperature for samples prepared within the last 24 h.
Interfacial tension (IFT) of all the individual components and their blends is measured at 0.1 wt. % active against light mineral oil at ambient temperature using a Kruss DSA-20 pendent drop tensiometer. The drop is blown out at 600 μL/min., and a video is recorded for 100 s. The video frames taken during the last 15 s are analyzed and used for the IFT calculation.
For blends having an IFT less than 0.5 mN/m, the IFT is determined using a spinning drop tensiometer (University of Texas 500) at 25° C. Oil density=0.877 g/cm^3 and surfactant density=0.997 g/cm^3 are used for the IFT calculation.
The expected IFT for a blend is calculated based on ideal mixing (non-synergistic) using the active component in each blend. The equation used is given as: Expected IFT=X*IFTa+(1−X)*IFTb where X is the actives % of component A, IFTa is the IFT of component A, and IFTb is the IFT of component B. If the measured IFT for a blend is less than the expected IFT, then the blend is synergistic. If the measured IFT for a blend is higher than the expected IFT, the system is antagonistic.

[3] = Surfactant phase behavior study by cross-polarized microscopy; assay type: physicochemical; details: in deionized water, room temperature (20-22° C.); boundaries are estimates (±5%)
Method: Phase behavior is observed using an Olympus BH-2 cross-polarized microscope at 100-400× and room temperature (20° C. to 22° C.). The monounsaturated C11 alcohol derivatives (sulfates, ethoxylate sulfates, and alcohol ethoxylates) are compared with their saturated analogs. Samples are prepared by diluting the most concentrated product gradually with deionized water. When the surfactant concentration approaches a phase transition, the concentration is varied at 2-4% intervals to estimate the phase boundary. The actives level reported in Table 6 for each phase boundary is within ±5% of the true boundary. Samples are loaded between a microscope slide and cover glass and are allowed to equilibrate before observation. Microscopic texture is analyzed and used to determine the phase. For some samples, an AR 2000 rheometer (TA Instruments) is used to measure viscosity at 25° C. to further verify phase behavior.

[4] = tested on: zein, yellow corn (maize) protein
Method: The zein test is based on solubilization by surfactants of a yellow corn (maize) protein that is normally insoluble in water unless it is denatured. The test gravimetrically determines the amount of zein dissolved by a surfactant solution. The solubility of zein in surfactant solutions correlates well with skin irritation or roughness caused by the surfactant. […] A higher zein number corresponds to a greater degree of irritation.
A 1% actives solution of each test surfactant (120 mL) is prepared. The pH of each solution is adjusted to about 7.0 with dilute aq. sulfuric acid or dilute aq. sodium hydroxide. The surfactant solution is warmed to 45° C. Zein powder (1.50 g) is added to each of three jars. Surfactant (25.0 g of 1% actives solution) is added to each jar, and to one empty jar to be used as a blank. The solutions are mixed using magnetic stirring on a temperature-controlled hotplate at 45° C. for 60 min. Each mixture is then centrifuged (2500 rpm, 15 min.), and undissolved zein powder is isolated by vacuum filtration. The residue is washed with deionized water and dried (55° C., 24 h) to constant weight. The amount of undissolved zein protein is found gravimetrically, and the results from three runs are averaged to give the % of solubilized zein and zein number.

[5] = Appearance and solubility of surfactants and of 1:1 molar blends with cationic surfactant; assay type: physicochemical; details: for Appearance, 1.0%: 1:1 molar blend of the anionic with Ammonyx Cetac 30, 1.0% actives
Method: as §1

[6] = Chlorothalonil, test water 342 ppm
[7] = Chlorothalonil, test water 1000 ppm
[8] = Imidacloprid, test water 342 ppm
[9] = Imidacloprid, test water 1000 ppm
[10] = Tebuconazole, test water 342 ppm
[11] = Tebuconazole, test water 1000 ppm

Substance | Sedimentation results at 1 h ([1]; Atrazine, test water 342 ppm) | Sedimentation results at 24 h ([1]; Atrazine, test water 342 ppm) [mL] | Sedimentation results at 1 h ([1]; Atrazine, test water 1000 ppm) [mL] | Sedimentation results at 24 h ([1]; Atrazine, test water 1000 ppm) [mL] | Sedimentation results at 1 h [1, 6] | Sedimentation results at 24 h [1, 6] [mL] | Sedimentation results at 1 h [1, 7] [mL] | Sedimentation results at 24 h [1, 7] [mL] | Sedimentation results at 1 h ([1]; Diuron, test water 342 ppm) [mL] | Sedimentation results at 24 h ([1]; Diuron, test water 342 ppm) [mL] | Sedimentation results at 1 h ([1]; Diuron, test water 1000 ppm) [mL] | Sedimentation results at 24 h ([1]; Diuron, test water 1000 ppm) [mL] | Sedimentation results at 1 h [1, 8] [mL] | Sedimentation results at 24 h [1, 8] [mL] | Sedimentation results at 1 h [1, 9] | Sedimentation results at 24 h [1, 9] | Sedimentation results at 1 h [1, 10] | Sedimentation results at 24 h [1, 10] [mL] | Rating [1] | IFT at 0.1% actives/mineral oil (blend) [2] [mN/m] | other results
1-Undecanol, 1EO Ether Sulfate, Sodium Salt [Sat. C11 alcohol 1EO Na sulfate] | Tr | 1 | 0.5 | 1 | 0.5 mL | 1 | 0.5 | 2 | 0.5 | 1 | 1 | 2 | 1 | 2 | 2.5 mL | 2 mL | Tr | 0.5 | equal | 0.23 | Sedimentation results at 1 h [1, 11]: 5 mL; Sedimentation results at 24 h [1, 11]: 3 mL; Calculated IFT (no synergy) [2]: 6.44 mN/m; Synergy? [2]: very high; IFT at 0.1% actives (single component) [2]: 12.52 mN/m; Estimated Phase Region as a Function of % Actives Level: Hexagonal [3]: 36-58 % actives; Estimated Phase Region as a Function of % Actives Level: Isotropic Clear [3]: 0-36 % actives; Estimated Phase Region as a Function of % Actives Level: Lamellar [3]: 58-72 % actives; Estimated Phase Region as a Function of % Actives Level: Solid/gum/paste [3]: 72-100 % actives; % solubilized zein [4]: 33.7%; zein number [4]: 68.0; Solubility [5]: fair-poor; Appearance, 0.1% ([5]; 1:1 molar blend of the anionic with Ammonyx Cetac 30, 0.1% actives, ambient temperature): hazy liquid; Appearance, 1.0% ([5]; ambient temperature): separated
Undecylenic Alcohol, 1EO Ether Sulfate, Sodium Salt [Unsat. C11 alcohol 1EO Na sulfate] | Tr | 1 | 0.5 | 1 | Tr | 1 | 0.5 | 1 | 0.5 | 1 | 1 | 2 | 3 | 4 | 3, 3 mL | 3, 3 mL | Tr | 2 | equal | 0.13 | Sedimentation observation (flock) [1, 11]: flocked; Calculated IFT (no synergy) [2]: 3.27 mN/m; Synergy? [2]: very high; IFT at 0.1% actives (single component) [2]: 6.18 mN/m; Estimated Phase Region as a Function of % Actives Level: Isotropic Clear [3]: 0-64 % actives; Estimated Phase Region as a Function of % Actives Level: Solid/gum/paste [3]: 74-100 % actives; Estimated Phase Region as a Function of % Actives Level: Solid/isotropic [3]: 64-74 % actives; % solubilized zein ([4]; 1% actives solution, pH about 7.0, 45° C., 60 min, average of three runs): 8.3%; zein number ([4]; relative to 1% actives Stepanol WA-Extra PCK (SLS) control = 100, higher = more irritating, average of three runs): 16.7; Solubility [5]: good; Appearance, 1.0% ([5]; ambient temperature): separated
